Test results as given in patent US7169761B2, “Azulene derivatives and salts thereof” (Astellas Pharma Inc., priority 2002, dated 2007).

What was measured:
[1] = target: T1, human SGLT2 (Homo sapiens, UniProt P31639); experiment: Inhibition of human Na+-glucose cotransporter (human SGLT2) activity: methyl-α-D-glucopyranoside intake in CHO cells stably expressing human SGLT2; assay type: cell-based; conditions: inhibition of methyl-α-D-(U-14C)glucopyranoside intake, CHO cells stably expressing human SGLT2, 37° C., two hours
T1 construct: expressed in transfected cells; host or cells: CHO-K1
T1 sequence (P31639 1-672): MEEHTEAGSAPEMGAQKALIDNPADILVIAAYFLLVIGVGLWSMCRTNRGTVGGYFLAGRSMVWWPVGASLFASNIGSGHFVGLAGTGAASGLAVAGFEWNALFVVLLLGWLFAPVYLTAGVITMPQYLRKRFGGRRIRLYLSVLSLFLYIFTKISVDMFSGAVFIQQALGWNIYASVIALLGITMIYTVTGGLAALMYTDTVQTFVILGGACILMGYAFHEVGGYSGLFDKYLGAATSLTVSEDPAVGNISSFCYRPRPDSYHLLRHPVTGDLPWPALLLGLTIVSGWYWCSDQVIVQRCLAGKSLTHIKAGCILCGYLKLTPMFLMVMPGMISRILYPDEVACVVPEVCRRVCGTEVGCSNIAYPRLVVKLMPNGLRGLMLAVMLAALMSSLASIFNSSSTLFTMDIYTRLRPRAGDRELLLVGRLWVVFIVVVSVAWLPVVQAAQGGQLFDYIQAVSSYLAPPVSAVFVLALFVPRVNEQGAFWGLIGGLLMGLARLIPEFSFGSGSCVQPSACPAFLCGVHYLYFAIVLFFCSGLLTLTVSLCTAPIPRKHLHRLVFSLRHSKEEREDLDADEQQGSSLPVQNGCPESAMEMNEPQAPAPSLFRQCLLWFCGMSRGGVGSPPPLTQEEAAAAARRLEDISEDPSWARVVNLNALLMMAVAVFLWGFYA
Excerpt: [Inhibition of Human Na^+-Glucose Cotransporter (Human SGLT2) Activity]
(1) Preparation of Human SGLT 2 Expression Vector
First, single-strand cDNA was reversely transcripted from total RNA originating from the human kidney (manufactured by BD Biosciences Clontech) using a Superscript II (manufactured by Invitrogen Corporation) and a random hexamer. Second, using the cDNA as a template, a DNA fragment encoding a human SGLT2 (Wells, R. G. et al., Am. J. Physiol., 1992, 263(3) F459) was amplified by the PCR reaction using Pyrobest DNA polymerase (manufactured by Takara Bio Inc.). That is, a Hind III site and an EcoRI site were inserted into the 5′ side and the 3′ side of the DNA fragment, respectively by using primers.
The amplified fragment was cloned into a pCR2.1-Topo vector using a Topo TA Cloning Kit (manufactured by Invitrogen Corporation) and the cloned vector was transfected into a competent cell of Escherichia coli JM109. Ampicillin-resistant clones were cultured in a LB medium containing ampicillin (100 mg/l). A plasmid was purified from the cultured Escherichia coli using the method of Hanahan (see Maniatis et al., “Molecular Cloning”). A DNA fragment for encoding a human SGLT2 was obtained by the Hind III/EcoRI digestion of the plasmid and ligated and cloned to the same site of the expression vector pcDNA 3.1 (manufactured by Invitrogen Corporation) using a DNA ligase (manufactured by Roche Diagnostics). The ligated clone was transfected into a competent cell of Escherichia coli JM109 in the same manner as described above and cultured in a LB medium containing ampicillin, and a human SGLT2 expression vector was obtained using the method of Hanahan.
(2) Preparation of Human SGLT2 Expressed Cells
The human SGLT2 expression vector was transfected into a CHO-K1 cell using Lipofectamine2000 (manufactured by Invitrogen Corporation). The cell was cultured in a Ham's F12 medium (manufactured by Nissui Pharmaceutical Co., Ltd.) containing penicillin (50 IU/ml, manufactured by Dainippon Pharmaceutical Co., Ltd.), streptomycin (50 μg/ml, manufactured by Dainippon Pharmaceutical Co., Ltd.), Geneticin (40 μg/ml, manufactured by Invitrogen Corporation), and 10% fetal bovine serum in the presence of 5% CO2 at 37° C. for two weeks, and Geneticin-resistant clones were obtained.
(3) Inhibition of Methyl-α-D-Glucopyranoside Intake
After removing the medium of a CHO cell which stably expresses the human SGLT2, a pretreatment buffer solution (buffer solution of pH 7.4 containing choline chloride (140 mM), potassium chloride (2 mM), calcium chloride (1 mM), magnesium chloride (1 mM), 2-[4-(2-hydroxyethyl)1-piperazinyl]ethanesulfonic acid (10 mM), and tris(hydroxymethyl) aminomethane (5 mM)) was added in the amount of 100 μl per well, and incubated at 37° C. for 20 minutes.
11 μl of methyl-α-D-(U-14C) glucopyranoside (manufactured by Amersham Pharmacia Biotech) was mixed with 1,000 μl of a buffer solution for intake containing a test compound (buffer solution of pH 7.4 containing sodium chloride (140 mM), potassium chloride (2 mM), calcium chloride (1 mM), magnesium chloride (1 mM), methyl-α-D-glucopyranoside (50 μM), 2-[4-(2-hydroxyethyl)1-piperazinyl]ethanesulfonic acid (10 mM), and tris(hydroxymethyl)aminomethane (5 mM)) to prepare a buffer solution for intake. A buffer solution for intake without a test compound was prepared for a control group. A buffer solution for basal intake without a test compound containing coline chloride (140 mM) instead of sodium chloride for measuring the basal intake was prepared as well.
After removing the pretreatment buffer solution, the buffer solution for intake was added (25 μl per well) and incubated at 37° C. for two hours. […]

[2] = tested on: blood glucose of KK-A^y mice; experiment: Hypoglycemic activity confirmation test in fed KK-Ay mice; assay type: in vivo, mouse; conditions: rate of decrease in blood glucose AUC 0–8 hours vs control group; fed male KK-A^y mice, oral, 3 mg/10 ml suspension at 10 ml/kg
Experimental: [Hypoglycemic Activity Confirmation Test]
Fed KK-A^y mice (CLEA Japan, Inc., male) were used. The test compound was suspended in 0.5% methylcellulose solution to a concentration of 3 mg/10 ml. The weight of each mouse was measured. The test compound suspension was orally administered forcibly to the mice at a dose of 10 ml/kg. Only 0.5% methylcellulose solution was administered to the mice of a control group. Each group consisted of six mice. Blood was collected from the tail vein immediately before administering the compound and one, two, four, and eight hours after administering the compound. The blood glucose value was measured using a glucose CII Test Wako (manufactured by Wako Pure Chemical Industries, Ltd.). The intensity of hypoglycemic activity was determined by calculating the area under the blood glucose value-time curve (AUC) using a trapezoidal method from the glucose value of 0–8 hours after administering the compound and calculating the rate (%) of the decrease in the AUC of the drug-administered group from that of the control group.

`Cc1ccc(Cc2cc3cccccc-3c2)cc1[C@@H]1O[C@H](CO)[C@@H](O)[C@H](O)[C@H]1O` [Example 11] gave an IC50 [1] of 29 nM.

Molecule `OC[C@H]1O[C@@H](c2cccc(Cc3cc4cccccc-4c3)c2)[C@H](O)[C@@H](O)[C@@H]1O` [Example 25] has an IC50 [1] of 22 nM.

For `COc1ccc(Cc2cc3cccccc-3c2)cc1[C@@H]1O[C@H](CO)[C@@H](O)[C@H](O)[C@H]1O` [Example 28], the IC50 [1] was 16 nM and the Hypoglycemic activity [2] was 46%.

`OC[C@H]1O[C@@H](c2cc(Cc3cc4cccccc-4c3)ccc2O)[C@H](O)[C@@H](O)[C@@H]1O` [Example 75, (1S)-1,5-anhydro-1-[5-(azulen-2-ylmethyl)-2-hydroxyphenyl]-D-glucitol] gave an IC50 [1] of 8.9 nM.

Molecule `OC[C@H]1O[C@@H](c2cccc(Cc3ccc4cccc-4cc3)c2)[C@H](O)[C@@H](O)[C@@H]1O` [Example 21] has an IC50 [1] of 99 nM.

In the case of `CCOc1ccc(Cc2cc3cccccc-3c2)cc1[C@@H]1O[C@H](CO)[C@@H](O)[C@H](O)[C@H]1O` [Example 7, (1S)-1,5-anhydro-1-[5-(azulen-2-ylmethyl)-2-ethoxyphenyl]-D-glucitol], the IC50 [1] is reported as 16 nM.

`COc1cc(OC)c([C@@H]2O[C@H](CO)[C@@H](O)[C@H](O)[C@H]2O)cc1Cc1cc2cccccc-2c1` [Example 60, (1S)-1,5-anhydro-1-[5-(azulen-2-ylmethyl)-2,4-dimethoxyphenyl]-D-glucitol] was tested, and the IC50 [1] was 5.7 nM and the Hypoglycemic activity [2] was 45%.
